From patent US20260226105A1, “Antimicrobial And Antibiofilm Peptides Sequences With Metal-Binding Motifs” (The Trustee of the University of Pennsylvania, priority 2021, published 2026)
Where “and” joins values, the source holds several entries; their conditions need not be identical. Identical values can stand only once. Like-named read-outs stand apart in the source and are kept apart here. Ends that are not written are not given here.

Experiments:
[1] = system: E. coli (KpC+1812446) biofilm; settings: for FICI: Biofilm
E. coli (KpC1812446) [2] = settings: agent alone, BM2 minimal medium
[3] = system: K. pneumoniae (ATCC13883); assay: microbe, parasite or virus in culture; settings: Klebsiella pneumoniae
[4] = system: E. coli (KpC+1812446) planktonic cells; settings: for FICI: Planktonic
[5] = system: K. pneumoniae (ATCC13883)
E. coli (KpC1812446) [6] = assay: microbe, parasite or virus in culture; settings: Escherichia coli
E. coli (KpC+ 1812446) = settings: MH broth, 12 h, 37° C.
[7] = system: K. pneumoniae (ATCC13883); remark: listed apart in the source
[8] = system: K. pneumoniae (ATCC 13883)
[9] = system: K. pneumoniae (KpC+ 1825971); settings: for MIC in Cu(II) supplemented medium: Cu(II) supplemented medium (0.25 μM); for MIC: MH broth, 12 h, 37° C.
E. coli (KpC1812446) [10] = settings: Table 3, agent alone
[11] = system: P. aeruginosa (ATCC 27853)
E. coli (KpC+ 2101123) = settings: for MIC in Cu(II) supplemented medium: Cu(II) supplemented medium (0.25 μM); for MIC: MH broth, 12 h, 37° C.
E. coli (ATCC 25922) [12] = system: E. coli (ATCC 25922)
[13] = system: K. pneumoniae (KpC1825971); settings: Table 3, agent alone
E. coli (ATCC25922) = settings: Table 3, agent alone
[14] = system: K. pneumoniae (KpC1825971); settings: agent alone, BM2 minimal medium
E. coli (ATCC 25922) [15] = settings: agent alone, BM2 minimal medium
E. coli KpC+1812446 = format: in vivo, mice; settings: for in vivo toxicity: infected Balb/C mice, 5 and 10 mg·Kg^−1
Method: Male Balb/C (18-20 g) mice from the Biotério Central do Campus da USP in Ribeirão Preto, São Paulo, were kept in groups of 5 per cage at 22° C. with normal cycles of light and free access to food and water. The care and use of the animals were approved by the Ethics Committee of Universidade Católica Dom Bosco number 019/2016. We assessed the ability of the peptides to protect the mice from lethal systemic infections induced with E. coli KpC+1812446. The mice (n=40) were randomly placed into eight groups of five mice each, and each mouse was injected intraperitoneally with 200 μL of saline solution containing 2×10^7 CFU of E. coli KpC+1812446. Intraperitoneal treatment with 5 or 10 mg·Kg^−1 of each peptide was initiated after one hour of infection and repeated at 24 h intervals for seven days^61. Gentamicin at 10 mg·Kg^−1 of body weight and normal saline were used as positive and negative controls, respectively.

[16] = agent alone, BM2 minimal medium
[17] = Cu(II) supplemented medium (0.25 μM)

COc1cc(Cc2cnc(N)nc2N)cc(OC)c1OC [TRI, trimethoprim]
MBIC Antibiotic alone ([1]; Table 7, biofilm, antibiotic alone): 440 µM | MBIC Antibiotic + Peptide ([1]; Table 7, biofilm, antibiotic in combination with CM15): 440 µM | MBIC Antibiotic + Peptide ([1]; Table 7, biofilm, antibiotic in combination with GGH-CM15): 220 µM | MBIC Antibiotic + Peptide ([1]; Table 7, biofilm, antibiotic in combination with VIH-CM15): 220 µM | MBIC (E. coli (KpC1812446) [2]): >220 µM | MIC [3]: > 220 µM | MBIC Antibiotic alone ([4]; Table 8, planktonic cells, antibiotic alone): 440 µM | MBIC Antibiotic + Peptide ([4]; Table 8, planktonic cells, antibiotic in combination with CM15): 55 µM | MBIC Antibiotic + Peptide ([4]; Table 8, planktonic cells, antibiotic in combination with GGH-CM15): 110 µM | MBIC Antibiotic + Peptide ([4]; Table 8, planktonic cells, antibiotic in combination with VIH-CM15): 220 µM | MBIC [5, 16]: >220 µM | MIC (E. coli (KpC1812446) [6]): > 220 µM

GGHGLFDVIKKVASVIGGL-NH2 [GGH-Citropin1.1]
MIC in Cu(II) supplemented medium (S. aureus (ATCC 25923); ATCC 25923): 9 µM | MIC (S. aureus (ATCC 25923); ATCC 25923, 12 h): 9 µM | MIC (E. coli (KpC+ 1812446)): 34 µM | MIC ([7]; ATCC13883): >34 µM | MIC ([8]; ATCC 13883, 12 h): 34 µM | MIC in Cu(II) supplemented medium [9]: >34 µM | MIC [9]: >34 µM | MBIC (E. coli (KpC1812446) [2]): >34 µM | MIC (E. coli (KpC1812446) [10]): >34 µM | MIC ([11]; ATCC 27853, 12 h): >34 µM | MIC in Cu(II) supplemented medium (E. coli (KpC+ 2101123)): 9 µM | MIC (E. coli (KpC+ 2101123)): 9 µM | MIC in Cu(II) supplemented medium (E. coli (ATCC 25922) [12]; ATCC 25922): 34 µM | MIC (E. coli (ATCC 25922) [12]; ATCC 25922, 12 h): 34 µM | MBIC ([5]; ATCC13883): >34 µM | MIC (MRSA (3730529); 3730529, 12 h): 17 µM

GGHKWKLFKKIGAVLKVL [GGH-CM15]
MIC in Cu(II) supplemented medium (S. aureus (ATCC 25923); [17]): 1 µM | MIC (S. aureus (ATCC 25923); MH broth, 12 h, 37° C.): 1 µM | MIC [13]: 8 µM | FICI ([1]; peptide + AmP): 2.0 | FICI ([1]; peptide + CHL): 2.0 | FICI ([1]; peptide + MER): 0.27 | FICI ([1]; peptide + STR): 0.78 and 0.75 | FICI ([1]; peptide + TRI): 1.5 | MIC (E. coli (ATCC25922)): 4 µM | MIC (E. coli (KpC+ 1812446)): 2 µM | MIC ([7]; Table 3, agent alone): >32 µM | MIC ([8]; MH broth, 12 h, 37° C.): 1 µM | MIC in Cu(II) supplemented medium [9]: 2 µM | MIC [9]: 2 µM | MBIC [14]: 4 µM | MBIC (E. coli (KpC1812446) [2]): 4 µM | MBIC (E. coli (ATCC 25922) [15]): 4 µM | MIC (E. coli (KpC1812446) [10]): 8 µM | MIC ([11]; MH broth, 12 h, 37° C.): 1 µM | MIC in Cu(II) supplemented medium (E. coli (KpC+ 2101123)): 2 µM | MIC (E. coli (KpC+ 2101123)): 2 µM | mouse deaths (E. coli KpC+1812446; 5 and 10 mg·Kg^−1 intraperitoneal): all the mice died on the first day | in vivo toxicity (E. coli KpC+1812446): did not decrease the toxicity of CM15 | FICI ([4]; peptide + AmP): 1.52 and 1.5 | FICI ([4]; peptide + CHL): 0.5 and 0.5008 | FICI ([4]; peptide + MER): 0.52 | FICI ([4]; peptide + STR): 1.5 | FICI ([4]; peptide + TRI): 0.5 | MIC in Cu(II) supplemented medium (E. coli (ATCC 25922) [12]; [17]): 2 µM | MIC (E. coli (ATCC 25922) [12]; MH broth, 12 h, 37° C.): 2 µM | MBIC [5, 16]: >32 µM | MIC, TETA (E. coli MG1655; cell-impermeable Cu(II) chelator triethylenetetramine (TETA) 200 μM): 2 µM | MIC, TTM (E. coli MG1655; cell-permeable Cu(II) chelator tetrathiolmolybdate (TTM) 200 μM): 32 µM | MIC, No Chelator (E. coli MG1655; no chelator): 1 µM | MIC (MRSA (3730529); MH broth, 12 h, 37° C.): 2 µM

GLFDVIKKVASVIGGL-NH2 [Citropin1.1, GLFDVIKKVASVIGGL-NH2, reference compound]
MIC in Cu(II) supplemented medium (S. aureus (ATCC 25923); ATCC 25923): 3 µM | MIC (S. aureus (ATCC 25923); ATCC 25923, 12 h): 3 µM | MIC (E. coli (KpC+ 1812446)): 10 µM | MIC ([7]; ATCC13883): >40 µM | MIC ([8]; ATCC 13883, 12 h): 20 µM | MIC in Cu(II) supplemented medium [9]: 20 µM | MIC [9]: 20 µM | MBIC (E. coli (KpC1812446) [2]): >40 µM | MIC (E. coli (KpC1812446) [10]): >40 µM | MIC ([11]; ATCC 27853, 12 h): >40 µM | MIC in Cu(II) supplemented medium (E. coli (KpC+ 2101123)): 5 µM | MIC (E. coli (KpC+ 2101123)): 5 µM | MIC in Cu(II) supplemented medium (E. coli (ATCC 25922) [12]; ATCC 25922): 10 µM | MIC (E. coli (ATCC 25922) [12]; ATCC 25922, 12 h): 10 µM | MBIC ([5]; ATCC13883): >40 µM | MIC (MRSA (3730529); 3730529, 12 h): 10 µM

KWKLFKKIGAVLKVL [CM15, KWKLFKKIGAVLKVL, reference compound]
mouse deaths (E. coli KpC+1812446; 10 mg·Kg^−1 intraperitoneal): led to mouse deaths after two days of treatment | in vivo toxicity (E. coli KpC+1812446): high in vivo toxicity

VIHGLFDVIKKVASVIGGL-NH2 [VIH-Citropin1.1]
MIC in Cu(II) supplemented medium (S. aureus (ATCC 25923); ATCC 25923): 4 µM | MIC (S. aureus (ATCC 25923); ATCC 25923, 12 h): 4 µM | MIC (E. coli (KpC+ 1812446)): 33 µM | MIC ([7]; ATCC13883): >33 µM | MIC ([8]; ATCC 13883, 12 h): >33 µM | MIC in Cu(II) supplemented medium [9]: >33 µM | MIC [9]: >33 µM | MBIC (E. coli (KpC1812446) [2]): >33 µM | MIC (E. coli (KpC1812446) [10]): >33 µM | MIC ([11]; ATCC 27853, 12 h): >33 µM | MIC in Cu(II) supplemented medium (E. coli (KpC+ 2101123)): 16 µM | MIC (E. coli (KpC+ 2101123)): 16 µM | MIC in Cu(II) supplemented medium (E. coli (ATCC 25922) [12]; ATCC 25922): >33 µM | MIC (E. coli (ATCC 25922) [12]; ATCC 25922, 12 h): >33 µM | MBIC ([5]; ATCC13883): >33 µM | MIC (MRSA (3730529); 3730529, 12 h): 16 µM
